From patent US10072003B2, “Tetrahydronaphthyridine derivatives as mGluR2-negative allosteric modulators, compositions, and their use” (Merck Sharp & Dohme Corp., priority 2014, dated 2018)

Target: recombinant human mGluR2 (Homo sapiens (Human), UniProt Q14416)
Assay: FLIPR Ca2+ mobilization antagonist assay in CHO dhfr- cells expressing human mGluR2 and Gα16
Type: cell-based
Conditions: antagonist response after addition of 2,500 nM glutamate, Fluo-4 AM, FLIPR384
Method in brief: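 CHO dhfr- cells stably co-expressing human mGluR2 and Gα16, Fluo-4 AM loaded, preincubated with compound, then challenged with 2,500 nM glutamate; Ca2+ response read by FLIPR. Maximum calcium response vs concentration fitted to four-parameter logistic for IC50.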

Sequence of recombinant human mGluR2 (Q14416 19-872): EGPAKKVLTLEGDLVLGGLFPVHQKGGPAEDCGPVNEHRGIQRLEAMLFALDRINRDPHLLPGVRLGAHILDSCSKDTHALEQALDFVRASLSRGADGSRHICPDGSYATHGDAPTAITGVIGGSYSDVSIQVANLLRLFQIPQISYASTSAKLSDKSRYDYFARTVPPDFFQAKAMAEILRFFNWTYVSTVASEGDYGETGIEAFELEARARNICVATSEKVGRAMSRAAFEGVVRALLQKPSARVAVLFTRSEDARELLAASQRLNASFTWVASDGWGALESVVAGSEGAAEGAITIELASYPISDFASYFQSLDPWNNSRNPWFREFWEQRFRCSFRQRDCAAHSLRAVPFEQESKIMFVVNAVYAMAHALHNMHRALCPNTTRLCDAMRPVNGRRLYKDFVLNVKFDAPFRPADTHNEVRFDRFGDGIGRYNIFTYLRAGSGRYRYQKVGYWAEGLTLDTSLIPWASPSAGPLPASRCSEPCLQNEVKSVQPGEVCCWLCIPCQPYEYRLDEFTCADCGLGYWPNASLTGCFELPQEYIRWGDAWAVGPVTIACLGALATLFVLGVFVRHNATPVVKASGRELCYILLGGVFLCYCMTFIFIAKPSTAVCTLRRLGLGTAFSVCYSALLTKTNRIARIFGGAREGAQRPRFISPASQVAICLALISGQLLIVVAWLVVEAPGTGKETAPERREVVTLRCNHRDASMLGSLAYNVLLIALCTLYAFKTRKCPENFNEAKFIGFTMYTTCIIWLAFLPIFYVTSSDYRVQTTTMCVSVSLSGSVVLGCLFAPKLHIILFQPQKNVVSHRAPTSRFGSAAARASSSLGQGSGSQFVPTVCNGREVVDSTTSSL

Row | Compound | IC50
1 | COc1cc(CN2CCc3c(N4CCC(F)(F)CC4)cc(C(N)=O)nc3C2)ccn1 [Example 5-3, 4-(4,4-difluoropiperidin-1-yl)-7-[(2-methoxypyridin-4-yl)methyl]-5,6,7,8-tetrahydro-1,7-naphthyridine-2-carboxamide] | 41 nM
2 | NC(=O)c1cc(N2CCCC3(CC3)C2)c2c(n1)CN(Cc1ccnc(C(F)(F)F)c1)CC2 [Example 5-4, 4-(5-azaspiro[2.5]oct-5-yl)-7-{[2-(trifluoromethyl)pyridin-4-yl]methyl}-5,6,7,8-tetrahydro-1,7-naphthyridine-2-carboxamide] | 29 nM
3 | Cc1cn(-c2cc(C(N)=O)nc3c2CCN(Cc2ccnc(C(F)(F)F)c2)C3)nc1C [Example 5-7, 4-(3,4-dimethyl-1H-pyrazol-1-yl)-7-{[2-(trifluoromethyl)pyridin-4-yl]methyl}-5,6,7,8-tetrahydro-1,7-naphthyridine-2-carboxamide] | 42.7 nM
4 | COc1cnn(-c2cc(C(N)=O)nc3c2CCN(Cc2ccnc(C(F)(F)F)c2)C3)c1 [Example 5-8, 4-(4-methoxy-1H-pyrazol-1-yl)-7-{[2-(trifluoromethyl)pyridin-4-yl]methyl}-5,6,7,8-tetrahydro-1,7-naphthyridine-2-carboxamide] | 88.7 nM
5 | NC(=O)c1cc(-n2cc(C(F)(F)F)cn2)c2c(n1)CN(Cc1ccnc(C(F)(F)F)c1)CC2 [Example 5-10, 4-[4-(trifluoromethyl)-1H-pyrazol-1-yl]-7-{[2-(trifluoromethyl)pyridin-4-yl]methyl}-5,6,7,8-tetrahydro-1,7-naphthyridine-2-carboxamide] | 32 nM
6 | NC(=O)c1cc(-c2ccc(Cl)cn2)c2c(n1)CN(Cc1ccnc(C(F)(F)F)c1)CC2 [Example 6-1, 4-(5-chloropyridin-2-yl)-7-((2-(trifluoromethyl)pyridin-4-yl)methyl)-5,6,7,8-tetrahydro-1,7-naphthyridine-2-carboxamide] | 11.7 nM
7 | Cc1csc(-c2cc(C(N)=O)nc3c2CCN(Cc2ccnc(C(F)(F)F)c2)C3)n1 [Example 6-2, 4-(4-methyl-1,3-thiazol-2-yl)-7-{[2-(trifluoromethyl)pyridin-4-yl]methyl}-5,6,7,8-tetrahydro-1,7-naphthyridine-2-carboxamide] | 1150 nM
8 | Cc1ncc(-c2cc(C(N)=O)nc3c2CCN(Cc2ccnc(OC(F)F)c2)C3)s1 [Example 6-3, 7-{[2-(difluoromethoxy)pyridin-4-yl]methyl}-4-(2-methyl-1,3-thiazol-5-yl)-5,6,7,8-tetrahydro-1,7-naphthyridine-2-carboxamide] | 18.6 nM
9 | Cc1ncc(-c2cc(C(N)=O)nc3c2CCN(Cc2ccnn2C)C3)s1 [Example 6-4, 7-[(1-methyl-1H-pyrazol-5-yl)methyl]-4-(2-methyl-1,3-thiazol-5-yl)-5,6,7,8-tetrahydro-1,7-naphthyridine-2-carboxamide] | 119 nM

Second part, the molecule after the results:

Row | IC50 | Compound
10 | 27.7 nM | NC(=O)c1cc(-c2ccc(Cl)cc2F)c2c(n1)CN(Cc1ncon1)CC2 [Example 9-1, 7-((1,2,4-oxadiazol-3-yl)methyl)-4-(4-chloro-2-fluorophenyl)-5,6,7,8-tetrahydro-1,7-naphthyridine-2-carboxamide]
11 | 9.7 nM | Cc1nc(CN2CCc3c(-c4ccc(Cl)cc4F)cc(C(N)=O)nc3C2)no1 [Example 9-2, 4-(4-chloro-2-fluorophenyl)-7-[(5-methyl-1,2,4-oxadiazol-3-yl)methyl]-5,6,7,8-tetrahydro-1,7-naphthyridine-2-carboxamide]
12 | 14.2 nM | COc1nccc(CN2CCc3c(-c4ccc(Cl)cc4F)cc(C(N)=O)nc3C2)n1 [Example 9-3, 4-(4-chloro-2-fluorophenyl)-7-[(2-methoxypyrimidin-4-yl)methyl]-5,6,7,8-tetrahydro-1,7-naphthyridine-2-carboxamide]
13 | 23.9 nM | Cn1ncnc1CN1CCc2c(-c3ccc(Cl)cc3F)cc(C(N)=O)nc2C1 [Example 9-4, 4-(4-chloro-2-fluorophenyl)-7-[(1-methyl-1H-1,2,4-triazol-5-yl)methyl]-5,6,7,8-tetrahydro-1,7-naphthyridine-2-carboxamide]
14 | 12.7 nM | Cc1noc(CN2CCc3c(-c4ccc(Cl)cc4F)cc(C(N)=O)nc3C2)n1 [Example 9-5, 4-(4-chloro-2-fluorophenyl)-7-[(3-methyl-1,2,4-oxadiazol-5-yl)methyl]-5,6,7,8-tetrahydro-1,7-naphthyridine-2-carboxamide]
15 | 8 nM | CC(C)c1noc(CN2CCc3c(-c4ccc(Cl)cc4F)cc(C(N)=O)nc3C2)n1 [Example 9-6, 4-(4-chloro-2-fluorophenyl)-7-{[3-(1-methylethyl)-1,2,4-oxadiazol-5-yl]methyl}-5,6,7,8-tetrahydro-1,7-naphthyridine-2-carboxamide]
16 | 11.7 nM | COc1ccnc(CN2CCc3c(-c4ccc(Cl)cc4F)cc(C(N)=O)nc3C2)n1 [Example 9-7, 4-(4-chloro-2-fluorophenyl)-7-[(4-methoxypyrimidin-2-yl)methyl]-5,6,7,8-tetrahydro-1,7-naphthyridine-2-carboxamide]
17 | 31 nM | CC1(CN2CCc3c(-c4ccc(Cl)cc4F)cc(C(N)=O)nc3C2)COC1 [Example 10-1, 4-(4-chloro-2-fluorophenyl)-7-((3-methyloxetan-3-yl)methyl)-5,6,7,8-tetrahydro-1,7-naphthyridine-2-carboxamide]
18 | 7.4 nM | COc1ncc(CN2CCc3c(-c4ccc(Cl)cc4F)cc(C(N)=O)nc3C2)cn1 [Example 10-2, 4-(4-chloro-2-fluorophenyl)-7-[(2-methoxypyrimidin-5-yl)methyl]-5,6,7,8-tetrahydro-1,7-naphthyridine-2-carboxamide]
19 | 12 nM | NC(=O)c1cc(-c2ccc(Cl)cc2F)c2c(n1)CN(Cc1cccnc1)CC2 [Example 10-3, 4-(4-chloro-2-fluorophenyl)-7-(pyridin-3-ylmethyl)-5,6,7,8-tetrahydro-1,7-naphthyridine-2-carboxamide]
20 | 14.6 nM | Cn1cc(CN2CCc3c(-c4ccc(Cl)cc4F)cc(C(N)=O)nc3C2)cn1 [Example 10-4, 4-(4-chloro-2-fluorophenyl)-7-[(1-methyl-1H-pyrazol-4-yl)methyl]-5,6,7,8-tetrahydro-1,7-naphthyridine-2-carboxamide]
21 | 25.8 nM | NC(=O)c1cc(-c2c(F)cccc2F)c2c(n1)CN(Cc1ccnc(C(F)(F)F)n1)CC2 [Example 11-1, 4-(2,6-Difluorophenyl)-7-((2-(trifluoromethyl)pyrimidin-4-yl)methyl)-5,6,7,8-tetrahydro-1,7-naphthyridine-2-carboxamide]
22 | 52.1 nM | NC(=O)c1cc(-c2cc(F)ccc2F)c2c(n1)CN(Cc1ccnc(C(F)(F)F)n1)CC2 [Example 11-2, 4-(2,5-difluorophenyl)-7-{[2-(trifluoromethyl)pyrimidin-4-yl]methyl}-5,6,7,8-tetrahydro-1,7-naphthyridine-2-carboxamide]
23 | 7.2 nM | NC(=O)c1cc(-c2ccc(Cl)cc2F)c2c(n1)CN(Cc1ccnc(C(F)(F)F)n1)CC2 [Example 11-3, 4-(4-chloro-2-fluorophenyl)-7-{[2-(trifluoromethyl)pyrimidin-4-yl]methyl}-5,6,7,8-tetrahydro-1,7-naphthyridine-2-carboxamide]
24 | 19.7 nM | NC(=O)c1cc(-c2ccccc2Cl)c2c(n1)CN(Cc1ccnc(C(F)(F)F)n1)CC2 [Example 11-4, 4-(2-chlorophenyl)-7-{[2-(trifluoromethyl)pyrimidin-4-yl]methyl}-5,6,7,8-tetrahydro-1,7-naphthyridine-2-carboxamide]
